Test results: ChEMBL document CHEMBL1212934, “Isolation of pandamarilactonine-H from the roots of Pandanus amaryllifolius and synthesis of epi-pandamarilactonine-H” (J Nat Prod, 2010)

What was measured:
Format in all cases: functional, cell-based
HCT-116 = assay: Cytotoxicity against human HCT116 cells
HT-29 = assay: Cytotoxicity against human HT-29 cells
A549 = assay: Cytotoxicity against human A549 cells

Measured: IC50

COC(=O)C[C@@H]1CCCN1CCC/C=C1\C=C(C)C(=O)O1
> 5 µg/mL: all assays above

COC(=O)C[C@H]1CCCN1CCC/C=C1/C=C(C)C(=O)O1
> 5 µg/mL: all assays above

COC(=O)C[C@H]1CCCN1CCC/C=C1\C=C(C)C(=O)O1
> 5 µg/mL: all assays above

CC1=C[C@H]([C@H]2CCCN2CCCC[C@@H]2C[C@@H](C)C(=O)O2)OC1=O
> 5 µg/mL: all assays above
